Counter-ions that a name gives are not always drawn.
Key:
[1] = biological target: T1, recombinant human ATX/ENPP2 (Homo sapiens, UniProt Q13822); test: Choline release assay, 16:0-LPC substrate, overnight (15 h) incubation; assay type: biochemical; details: about 15 h incubation, read-out: In vitro IC50, Recombinant human ATX/ENPP2, Choline (O/N)
T1 construct: (His)6 (C); made in house; host or cells: baculovirus AcNPV; virus made in Sf9, protein expressed in expresSF+ insect cells, from culture supernatant
Protocol: A series of reaction mixtures containing different concentrations of the inhibitors were also tested in parallel using an overnight incubation. First, the aqueous solution of recombinant ATX/ENPP2 (final concentration 2 µg/ml) or plasma samples from various animal species (final concentration 40%) was added to the reaction mixture containing different concentrations of ATX/ENPP2 inhibitors, 1 mM 16:0-LPC, and 1% DMSO. Then, each mixture was incubated at 37°C for 15 h (primary reaction). Samples of each mixture were subjected to the secondary reaction with 10 volumes of 300 µM TOOS in 100 mM Tris-HCl solution (pH 8.5), 500 µM 4-aminoantipyrine, 600 mU/ml horseradish peroxidase, 3 U/ml choline oxidase, and 5 mM CaCl2, at 37°C for 20 min (secondary reaction). […] Measurement points of choline production were plotted against the concentration of the inhibitor and the theoretical curve to obtain the IC50 value of the inhibitor for LysoPLD activity was obtained using the Activity Base version 7.1.0.39 software from ID Business Solutions Ltd.

[2] = biological target: T1, recombinant human ATX/ENPP2; test: FS-3 assay of LysoPLD activity (2 h); assay type: biochemical; details: synthetic fluorescent substrate FS-3, 2 h; read-out: In vitro IC50, Recombinant human ATX/ENPP2, FS-3 (2 h)
Protocol: Recombinant ATX/ENPP2 protein (2 µg/ml) and various concentrations of the inhibitors were mixed and incubated at 37°C for 2 h in 100 mM Tris-HCl buffer (pH 8.0) containing 1%DMSO, 500 mM NaCl, 5 mM MgCl2, and 0.05% Triton X-100, in the presence of a fluorescent substrate FS-3 (1 µM). After incubation, fluorescence at 520 nm with excitation at 494 nm was measured.
(§1) Measurement points of choline production were plotted against the concentration of the inhibitor and the theoretical curve to obtain the IC50 value of the inhibitor for LysoPLD activity was obtained using the Activity Base version 7.1.0.39 software from ID Business Solutions Ltd.

[3] = biological target: T1, recombinant human ATX/ENPP2; test: Choline release assay, 16:0-LPC substrate, 30 min incubation; assay type: biochemical; details: read-out: In vitro IC50, Recombinant human ATX/ENPP2, Choline (30 min)
Protocol: In the choline release assay, a series of reaction mixtures containing different concentrations of the inhibitors were tested in parallel. Recombinant ATX/ENPP2 was dissolved in 100 mM Tris-HCl buffer (pH 9.0) containing 500 mM NaCl, 5 mM MgCl2 and 0.05% Triton X-100. First, the aqueous solution of recombinant ATX/ENPP2 (final concentration 2 µg/ml) was added to the reaction mixture containing different concentrations of the inhibitors, 1 mM 16:0-LPC, and DMSO 1%. Then, each mixture was incubated at 37°C for 30 min (primary reaction). A samples of each reaction mixture was subjected to the secondary incubation at 37°C for 30 min with 10 times the volume of 100 µM Amplex Red in 50 mM Tris-HCl buffer (pH 8.0), 1 U/ml horseradish peroxidase, 150 mU/ml choline oxidase and 5 mM CaCl2,. Fluorescence at 590 nm was measured with excitation at 544 nm and the amount of choline released in each reaction mixture was quantified based on a calibration curve created from a choline chloride standard.
as §1

plasma LPA = tested on: plasma LPA; parameters: method as in PMID 20392816; details: at 24 h after administration; cited from earlier work
[4] = tested on: urethane-anesthetized rats; test: Intraurethral pressure (IUP) in urethane-anesthetized rats; assay type: in vivo, rat
Protocol: Male Crl∶CD(SD) rats (7–8 weeks old) were anesthetized by intraperitoneal administration of urethane at a dose of 1.5 g/5 ml/kg. An arterial catheter (JMS cut-down tube; C3, JMS, Japan) was inserted into the common carotid artery to monitor blood pressure. After the abdomen was opened, another catheter (inner diameter, 0.9 mm; outer diameter, 1.5 mm; Shin-Etsu Polymer, Japan) was inserted into the duodenum and held in place with a suture thread. The abdomen was then cut along the median line and the urethra was ligated in the proximity of the pubic bone. For measurement of intraurethral pressure (IUP), a urethral catheter (JMS cut-down tube; C3, JMS Inc., Japan) was inserted from the top side of the bladder through the urethra and held in place by ligation at the bladder neck. Finally, both the arterial catheter and urethral catheter were connected to a pressure transducer (Nihon Kohden, Japan), and the rat was placed on a warm mat (37°C). Blood pressure and IUP were measured by a recorder (Graphtec, Japan) using a torsion-pressure amplifier (Nihon Kohden, Japan).
ONO-8430506 was dissolved in an aqueous solution containing 1.1 times the equivalent amount of NaOH. After confirming stabilization of IUP, rats received either the inhibitor or tamsulosin at a dose of 2 ml/kg in an aqueous solution through the duodenal catheter. IUP and blood pressure were measured continuously during the 20-min after administration of either the inhibitor or tamsulosin. At the end of the 20-min period, heparinized blood was collected from the jugular vein of the rat to prepare a plasma sample. Rats were then euthanized by intravenous administration of 1 ml of pentobarbital (Somunopentyl, Kyoritsu Seiyaku Corporation). Postmortem IUP was measured until the lowest IUP value was reached and stabilized. The maximum percent decreases relative to the difference between baseline IUP and postmortem IUP was calculated to measure the change from baseline in IUP during the 20-min after drug administration.

[5] = tested on: urethane-anesthetized rats; test: Mean blood pressure in urethane-anesthetized rats; assay type: in vivo, rat; details: intraduodenal, up to 3 mg/kg (tamsulosin at the same dose range)
Protocol: Male Crl∶CD(SD) rats (7–8 weeks old) were anesthetized by intraperitoneal administration of urethane at a dose of 1.5 g/5 ml/kg. An arterial catheter (JMS cut-down tube; C3, JMS, Japan) was inserted into the common carotid artery to monitor blood pressure. After the abdomen was opened, another catheter (inner diameter, 0.9 mm; outer diameter, 1.5 mm; Shin-Etsu Polymer, Japan) was inserted into the duodenum and held in place with a suture thread. The abdomen was then cut along the median line and the urethra was ligated in the proximity of the pubic bone. […] Blood pressure and IUP were measured by a recorder (Graphtec, Japan) using a torsion-pressure amplifier (Nihon Kohden, Japan).
ONO-8430506 was dissolved in an aqueous solution containing 1.1 times the equivalent amount of NaOH. […] IUP and blood pressure were measured continuously during the 20-min after administration of either the inhibitor or tamsulosin. […] Postmortem IUP was measured until the lowest IUP value was reached and stabilized. The maximum percent decreases relative to the difference between baseline IUP and postmortem IUP was calculated to measure the change from baseline in IUP during the 20-min after drug administration.

isolated rat urethra = test: Contraction of isolated rat urethra (Magnus apparatus); details: 100 nM to 30 µM added cumulatively
Protocol: Krebs-Henseleit buffer (112 mM NaCl, 5.9 mM KCl, 2.0 mM CaCl2, 1.2 mM MgCl2, 1.2 mM NaH2PO4, 25.0 mM NaHCO3 and 11.5 mM glucose) was prepared and aerated with 95%O2+5%CO2. 8-week old male CD (SD) IGS rats (Charles River Laboratories Japan, Inc.) were decapitated and exsanguinated. The urethra was excised and immediately immersed in ice-cooled Krebs-Henseleit buffer. The excised urethra was cut open and flattened using ophthalmologic scissors. The opened and flattened urethra was cut along the circular muscle into ‘ring-shaped’ strips 2–3 mm in width×3–4 mm in length using a razor. One ‘ring-shaped’ urethral specimen was prepared for each male rat.
Each prepared urethral specimen was hung inside a 5-ml Magnus tube filled with Krebs-Henseleit buffer (30°C). A resting tension of approximately 0.5 g was applied to the specimen for 60 min until it was stabilized. Thereafter, contraction motions of the specimen were recorded on a linear recorder (Model WR3320, Graphtec Corp.) after being amplified by a torsion-pressure amplifier (Models AP-641G and AP-601G, Nihon Kohden Corporation) and a force displacement pick-up transducer (Model TB-611T, Nihon Kohden Corporation). […] Phenylephrine (10 nM to 1 mM, Sigma-Aldrich) or 18:3-LPA (100 nM to 30 µM) was cumulatively added to the medium and the contractile force of each urethral specimen was measured.

Question: What does the source list for `O=C1S/C(=C\c2ccc(OCc3cccc(B(O)O)c3)cc2)C(=O)N1Cc1ccc(F)cc1` [HA130]?
Answer: IC50 [1]: 580 nM; IC50 [2]: 120 nM; IC50 [3]: 43 nM

Question: With `O=C(CCN1CCN(C(=O)OCc2cc(Cl)cc(Cl)c2)CC1)c1ccc2[nH]c(=O)oc2c1` [PF-8380] as the molecule, how does the “plasma LPA level after oral administration” value (plasma LPA) read?
Answer: Its value is “returned to the normal baseline level”.

Question: For `CCCCCCCCCCCCCC(=O)Nc1ccc(CP(=O)(O)O)cc1` [S32826], which IC50 [1] is on record?
Answer: Its IC50 is over 10000 nM.

Question: What about the IC50 [2] of the same molecule?
Answer: The IC50 was 17 nM.

Question: What about the IC50 [3] of the same molecule?
Answer: Its IC50 is 66 nM.

Question: With `CCOc1ccccc1OCCN[C@H](C)Cc1ccc(OC)c(S(N)(=O)=O)c1` [tamsulosin, tamsulosin hydrochloride] as the molecule, how does the “decrease in IUP” value ([4]; 0.3 mg/kg intraduodenal, maximum percent decrease during 20 min) read?
Answer: The value was 28%.

Question: And the “dose of maximum effect on IUP” value ([4]; intraduodenal)?
Answer: Its value is 0.3 mg/kg.

Question: And the “doses at which IUP decreased” value ([4]; intraduodenal)?
Answer: Its value is “higher than 0.03 mg/kg”.

Question: What about the “effect on mean blood pressure (MBP)” value [5] of the same molecule?
Answer: Its value is “drastically decreased”.

Question: Which “contractile effect in isolated rat urethra” value (isolated rat urethra) does the source give for “linolenoyl-lysophosphatidic acid [18:3-LPA]” here?
Answer: The value was “comparable to phenylephrine”.

— publication PMC3991570, “A Novel Highly Potent Autotaxin/ENPP2 Inhibitor Produces Prolonged Decreases in Plasma Lysophosphatidic Acid Formation In Vivo and Regulates Urethral Tension” (PLoS ONE, 2014)
